Several values for one entry are separate records, joined by “and”; a condition that tells them apart may be missing. Equal entries are not always repeated.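 96-well plates; 48 h exposure; 5 concentrations. Endpoints by linear interpolation between flanking doses. Not reached: highest tested concentration assigned. GI50 is the concentration that inhibits growth by half.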 Activity calls are given as the source filed them. Rule as the data show it: active = GI50 up to about 1.1 µM and inactive = higher. Where a SMILES comes first, the peptide text is derived from it. [ ]: non-standard residue; d: D form. The star is where a group is joined. Phe(4-NO2) = N[CH](Cc1ccc([N+](=O)[O-])cc1)C(=O)O; Boc = CC(C)(C)OC(=O)*; OtBu = CC(C)(C)O*
How the values were obtained:
Assay in all cases: NCI tumour cell line growth inhibition, 48 h
PC-3 = tested on: PC-3
T47D = tested on: T47D
DLD-1 = tested on: DLD-1
LXFL 529 = tested on: LXFL 529
KM-20L2 = tested on: KM-20L2
BT-549 = tested on: BT-549
SNB-78 = tested on: SNB-78
DMS-273 = tested on: DMS-273

SMILES	GI50 (PC-3)	GI50 (T47D)	GI50 (DLD-1)	GI50 (LXFL 529)	GI50 (KM-20L2)	GI50 (BT-549)	GI50 (SNB-78)	GI50 (DMS-273)
Cc1c(Cl)cccc1NC(=O)CC1Sc2ccccc2NC1=O (stereo not given)	27.4 µM (inactive)	25.5 µM (inactive)	35 µM (inactive) and 24.1 µM (inactive)	45.5 µM (inactive) and 30.1 µM (inactive)	24.6 µM (inactive) and 22.4 µM (inactive)	27 µM (inactive)	30 µM (inactive) and 48.6 µM (inactive)	–
C=CC(=O)N1C/C(=C\c2ccccc2)C(=O)/C(=C/c2ccccc2)C1	1.69 µM (inactive)	3.75 µM (inactive)	0.458 µM (active)	1.33 µM (inactive)	1.66 µM (inactive)	1.71 µM (inactive)	–	0.668 µM (active)
CC(=O)OCCN1c2ccccc2Sc2cnccc21	> 10 µM (inactive)	> 10 µM (inactive)	–	–	–	> 10 µM (inactive)	–	–
C=CO/N=[N+](\[O-])N(CC)CC	–	> 100 µM (inactive)	–	–	–	–	–	–
Cc1nc(=O)[nH]c2s/c(=N/C3CCCCC3)n(C3CCCCC3)c(=O)c12	> 100 µM (inactive)	> 100 µM (inactive)	–	–	–	–	–	–
NCCCc1nonc1C(=O)O	> 100 µM (inactive)	> 100 µM (inactive)	–	–	–	–	–	–
COc1ccc(CNc2cnc3cc(N)ccc3n2)cc1	–	–	–	> 100 µM (inactive)	> 100 µM (inactive)	–	> 100 µM (inactive)	> 100 µM (inactive)
CCN/C(=N\Nc1ccc([N+](=O)[O-])cc1)P(=O)(OC(C)C)OC(C)C	–	–	> 100 µM (inactive)	> 100 µM (inactive)	> 100 µM (inactive)	–	> 100 µM (inactive)	> 100 µM (inactive)
N#CC(C#N)=Cc1ccc2c(c1)OC(Cl)O2 (stereo not given)	23.2 µM (inactive)	32.4 µM (inactive)	–	–	–	–	–	–
CCOC(=O)NC(C(F)(F)F)(C(F)(F)F)P(=O)(OCC)OCC	22.8 µM (inactive)	42.1 µM (inactive)	–	–	–	34 µM (inactive)	–	–
CC1=NN(c2nc(N)nc(CBr)n2)C(C)(C)C1	5.33 µM (inactive)	5.97 µM (inactive)	–	–	–	11.8 µM (inactive)	–	–
CC1(C)S[C@H](c2ccccc2C(=O)O)N[C@@H]1CC(=O)O	–	–	> 100 µM (inactive)	> 100 µM (inactive)	–	–	> 100 µM (inactive)	> 100 µM (inactive)
CCC(=O)C(C(C)/C=C/CCSc1ccccc1)C(O)CCCCCC(=O)OC (stereo not given)	84.1 µM (inactive)	–	–	–	–	> 100 µM (inactive)	–	–
COC(=O)CCCC(=O)NC1=C(Nc2ccc(OC)cc2)C(=O)c2ccccc2C1=O	–	41.3 µM (inactive)	–	–	–	19.5 µM (inactive)	–	–
Cc1cn(C2CC(ON3C(=O)c4ccccc4C3=O)C(CO)O2)c(=O)[nH]c1=O (stereo not given)	> 10 µM (inactive)	–	–	–	–	> 10 µM (inactive)	–	–
CC(C)(CN)SCc1ccccc1	> 100 µM (inactive)	> 100 µM (inactive)	–	–	–	> 100 µM (inactive)	–	–
CCCCC1=C(C(=O)N2CCOCC2)C2(OCCO2)C1Cl (stereo not given)	35.6 µM (inactive)	46 µM (inactive)	–	–	–	–	–	–
Cc1ccc(C(=O)N/N=C(\N=N\c2ccccc2)c2ccc(N(C)C)cc2)cc1	> 100 µM (inactive)	–	–	–	–	> 100 µM (inactive)	–	–
C=C(C(=O)O)[C@@H]1C[C@@H]2O[C@H]1[C@@H](O)[C@@H](C)CCCC(C)=CCC[C@@]2(C)O	> 100 µM (inactive)	> 100 µM (inactive) and > 84.9 µM (inactive)	–	–	–	–	–	–
COC(=O)C1Cc2c([nH]c3ccccc23)C(c2ccccc2O)N1 (stereo not given)	–	–	42.9 µM (inactive)	62.7 µM (inactive)	95.5 µM (inactive)	–	–	60.4 µM (inactive)

SMILES	GI50 (PC-3)	GI50 (T47D)	GI50 (DLD-1)	GI50 (LXFL 529)	GI50 (KM-20L2)	GI50 (BT-549)	GI50 (SNB-78)	GI50 (DMS-273)
c1ccc(C2=NN3CN(N2)c2ccccc2OCCCOc2ccccc23)cc1	–	–	–	> 100 µM (inactive)	> 100 µM (inactive)	–	> 100 µM (inactive)	> 100 µM (inactive)
CCOC(=O)c1c(N2CCOCC2)ncn(-c2cccc(Cl)c2)c1=O	> 100 µM (inactive)	> 100 µM (inactive)	–	–	–	> 100 µM (inactive)	–	–
O=c1c2cc(S(=O)(=O)Nc3ccccc3Cl)ccc2ncn1NS(=O)(=O)c1ccc(Br)cc1	> 37.5 µM (inactive)	–	–	–	–	> 37.5 µM (inactive)	–	–
Nc1ncnc2c1ncn2CC(O)C(=O)O (stereo not given)	> 100 µM (inactive)	> 100 µM (inactive)	> 100 µM (inactive)	> 100 µM (inactive)	> 100 µM (inactive)	> 100 µM (inactive)	–	> 100 µM (inactive)
COc1cccc(C2CC(C)(N3CCCC3)Oc3cc4c(cc32)OCO4)c1O (stereo not given)	10.6 µM (inactive)	30.8 µM (inactive)	–	–	–	16.9 µM (inactive)	–	–
O=C(/C=C1\Nc2ccccc2C(=O)N1c1ccc(Cl)cc1)c1ccncc1	–	–	> 100 µM (inactive)	> 100 µM (inactive)	> 100 µM (inactive)	–	> 100 µM (inactive)	–
CC1(C)C2CCC1(C)C(N/C(=C(/C(Cl)=C(Cl)Cl)[N+](=O)[O-])n1nnc3ccccc31)C2 (stereo not given)	21.1 µM (inactive)	32.7 µM (inactive)	–	–	–	22.2 µM (inactive)	–	–
Clc1ccc(C2=CC(c3ccccc3)N3C(=N[C@H]4CCCC[C@@H]43)N2)cc1 (stereo not given in full)	6.56 µM (inactive)	6.4 µM (inactive)	–	–	–	9.12 µM (inactive)	–	–
CC[C@@]12N=C(N(C)C)C[C@]1(O)ON=C2C	–	–	> 100 µM (inactive)	> 100 µM (inactive)	> 100 µM (inactive)	–	–	> 100 µM (inactive)
N=C(N)C1CN(CC=O)C(=O)NC1=O (stereo not given)	> 100 µM (inactive)	> 100 µM (inactive)	–	–	–	> 100 µM (inactive)	–	–
Cn1c(O)c(C(=O)Nc2ccc([N+](=O)[O-])cc2)c(=O)n(C)c1=S	1.34 µM (inactive)	–	3.7 µM (inactive)	3.3 µM (inactive)	4.21 µM (inactive)	1.17 µM (inactive)	2.18 µM (inactive)	–
CN(C)c1ccc(C2CC(c3ccc4ccccc4c3O)=NN2c2ccc([N+](=O)[O-])cc2[N+](=O)[O-])cc1 (stereo not given)	23.6 µM (inactive)	68.1 µM (inactive)	–	–	–	91 µM (inactive)	–	–
S=C(Nc1ccc(/N=N/c2ccccc2)cc1)SCc1ccccc1	15 µM (inactive)	28.3 µM (inactive)	–	–	–	18.3 µM (inactive)	–	–
CC(C)(C)c1cc(C(=O)O)c2c(c1)C(=O)OC2(c1ccccc1)c1ccccc1C(=O)O (stereo not given)	–	–	> 100 µM (inactive)	> 100 µM (inactive)	> 100 µM (inactive)	–	–	> 100 µM (inactive)
O=C1c2ccccc2N2OC3C4CCC(C4)C3C12c1ccccc1 (stereo not given)	–	–	18.3 µM (inactive)	73.8 µM (inactive)	98.2 µM (inactive)	–	–	39.6 µM (inactive)
C=C(C)C1CC/C(C)=C/CCC2(C)OC2CC/C(CO)=C\C1O (stereo not given)	64.3 µM (inactive)	> 100 µM (inactive)	–	–	–	–	–	–
Cc1nc2ccccc2c(=O)n1/N=C(\N=N\c1ccccc1Cl)c1ccccc1	–	–	29.1 µM (inactive)	–	21.9 µM (inactive)	–	–	31.6 µM (inactive)
COc1ccc(/C=N/N=C(\N)NO)c(O)c1	3.48 µM (inactive)	> 10 µM (inactive)	–	–	–	> 10 µM (inactive)	–	–
CC1(C)OC(=O)C(C#N)=C1C[n+]1ccccc1	> 10 µM (inactive)	> 10 µM (inactive)	–	–	–	–	–	–
O=P(O)(O)C(NCC(O)CN1CCOCC1)P(=O)(O)O (stereo not given)	> 100 µM (inactive)	–	–	–	–	> 100 µM (inactive)	–	–

SMILES	GI50 (PC-3)	GI50 (T47D)	GI50 (DLD-1)	GI50 (LXFL 529)	GI50 (KM-20L2)	GI50 (BT-549)	GI50 (SNB-78)	GI50 (DMS-273)
CC(=O)OCC1OC(N2C(=O)CC(N)=Nc3ccccc32)C(OC(C)=O)C(OC(C)=O)C1OC(C)=O (stereo not given)	42.6 µM (inactive)	20.5 µM (inactive)	–	–	–	66.2 µM (inactive)	–	–
CC(C)/C(Cl)=N/OC(=O)Nc1ccc(Br)cc1	13.6 µM (inactive)	2.67 µM (inactive)	–	–	–	4.29 µM (inactive)	–	–
COc1ccc(NC(=O)Oc2cc(C)c3ccc(=O)cc-3o2)c(OC)c1.COc1ccc(NC(=O)Oc2ccc3c(C)cc(=O)oc3c2)c(OC)c1	> 100 µM (inactive)	> 100 µM (inactive)	–	–	–	–	–	–
O=C1C2C=CC(C2)C(c2ccc(O)cc2)N1O (stereo not given)	–	–	> 100 µM (inactive)	> 100 µM (inactive)	> 100 µM (inactive)	–	> 100 µM (inactive)	–
O=C(Nc1ccc(Cl)cc1Cl)c1cc2nc3ccccc3c(=O)n2c2ccccc12	> 10 µM (inactive)	> 10 µM (inactive)	–	–	–	> 10 µM (inactive)	–	–
O=C(O)c1ccc(OCc2nc3cc(C(F)(F)F)ccc3nc2-c2ccccc2)cc1	53.8 µM (inactive)	50.7 µM (inactive)	–	–	–	75.3 µM (inactive)	–	–
C=CCSC1=N/C(=C\c2ccc(C)cc2)C(=O)N1CC=C	22.2 µM (inactive)	25.9 µM (inactive)	–	–	–	23.6 µM (inactive)	–	–
COC(=O)C1CCC(=O)N1CN(C(C)=O)c1ccccc1 (stereo not given)	> 100 µM (inactive)	> 100 µM (inactive)	–	–	–	–	–	–
NC(=S)NS(=O)(=O)c1ccc(F)cc1F	> 100 µM (inactive)	> 100 µM (inactive)	–	–	–	> 100 µM (inactive)	–	–
CN1Cc2ccccc2/C=C\c2ccccc21	64 µM (inactive)	50.5 µM (inactive)	–	–	–	70 µM (inactive)	–	–
CN1C(=O)CC2CCC(=O)N2c2cccnc21 (stereo not given)	–	> 100 µM (inactive)	–	–	–	> 100 µM (inactive)	–	–
Cc1n[nH]c(=O)n1C1CCCC1	> 100 µM (inactive)	> 100 µM (inactive)	–	–	–	> 100 µM (inactive)	–	–
COC(=O)[C@@]12C3=NO[C@]1(C(=O)OC)C(O[Si](C)(C)C(C)(C)C)[C@H]1OC(C)(C)O[C@H]1[C@@H]2C(OCc1ccccc1)CC3 (stereo not given in full)	–	–	85.1 µM (inactive)	60 µM (inactive)	71.1 µM (inactive)	–	–	52 µM (inactive)
CC(=O)C1C(=O)C(=O)N(c2cccc([N+](=O)[O-])c2)C1=O (stereo not given)	> 100 µM (inactive)	–	–	–	–	> 100 µM (inactive)	–	–
O=c1cc(C(F)(F)F)c2cc3c(cc2o1)NCCC3	85.3 µM (inactive)	9.46 µM (inactive)	–	–	–	> 100 µM (inactive)	–	–
CC(C)(C)OC(=O)Nc1nnc(S(N)(=O)=O)s1	–	> 100 µM (inactive)	–	–	–	> 100 µM (inactive)	–	–
C[N+]1(CCC[N+]2(C)CC3C4C=CC(CC4)C3C2)CCOCC1 (stereo not given)	> 100 µM (inactive)	> 100 µM (inactive)	–	–	–	> 100 µM (inactive)	–	–
O=C1c2ccccc2-c2oc(=O)c3ccccc3c21	> 100 µM (inactive)	> 100 µM (inactive)	–	–	–	–	–	–
COC(=O)C(Cc1ccc([N+](=O)[O-])cc1)NC(=O)C(CC(=O)OC(C)(C)C)NC(=O)OC(C)(C)C (stereo not given) (Boc-Asp(OtBu)-[Phe(4-NO2)]-OMe; configuration not given here)	> 100 µM (inactive)	> 100 µM (inactive)	–	–	–	> 100 µM (inactive)	–	–
CCCCCCCCCCCCCC(=O)O[C@H]1CC[C@H](NC(=O)[C@H](OC)[C@H](O)[C@@H](O)[C@H](O)/C=C/C(C)C)C(=O)NC1 [BENGAMIDE A]	0.147 µM (active)	0.01 µM (active)	–	0.00386 µM (active)	0.0045 µM (active)	0.953 µM (active)	> 10 µM (inactive)	0.00512 µM (active)

Source: ChEMBL document CHEMBL1201862, “PubChem BioAssay data set” (2004)
